Assay results as given in ChEMBL document CHEMBL4665696, “Highly Modified Lanostane Triterpenes from the Wood-Rot Basidiomycete Ganoderma colossus: Comparative Chemical Investigations of Natural and Artificially Cultivated Fruiting Bodies and Mycelial Cultures” (J Nat Prod, 2020).
Values after ≈ are worked out from the molar mass of the structure shown.

Key:
[1] = tested on: Vero; experiment: Cytotoxicity against African green monkey Vero cells by green fluorescent protein-based assay; assay type: cell-based; settings: Chlorocebus sabaeus
[2] = tested on: Mycobacterium tuberculosis; experiment: Antitubercular activity against Mycobacterium tuberculosis H37Ra by green fluorescent protein microplate assay; assay type: functional
[3] = tested on: Plasmodium falciparum; experiment: Antimalarial activity against Plasmodium falcipuram K1 by microculture radioistope technique; assay type: functional, organism-based

How did the IC50 [1] turn out when `CC(=O)O[C@@H]1C[C@H]([C@H](C)[C@@H]2CC=C(C)C(=O)O2)[C@@]2(C)CCC3=C(CC[C@H]4C(C)(C)OC(=O)C=C[C@]45C[C@H]35)[C@]12C` was run?
Its IC50 is 8.5 µg/mL (≈ 15.8 µM).

What about the MIC [2] of the same compound?
Its MIC is 25 µg/mL (≈ 46.6 µM).

What about the IC50 [3] of the same compound?
Its IC50 is 0.001 µg/mL (≈ 0.00186 µM).

Which results are given for `CC1=CC[C@@H]([C@@H](C)[C@H]2CC[C@@]3(C)C4=C(CC[C@]23C)[C@]23CC[C@H](OC2=O)C(C)(C)[C@@H]3CC4)OC1=O`?
IC50 [1]: > 50 µg/mL; MIC [2]: > 50 µg/mL; IC50 [3]: > 10 µg/mL

Which results are given for `CC(=O)OC[C@]12CCC(=O)OC(C)(C)[C@@H]1CC=C1C2=CC[C@]2(C)[C@@H]([C@H](C)[C@H](C/C=C(/C)C(=O)O)OC(C)=O)CC[C@@]12C`?
IC50 [1]: > 50 µg/mL; MIC [2]: > 50 µg/mL; IC50 [3]: > 10 µg/mL

With `CC(=O)OC[C@]12CCC(=O)OC(C)(C)[C@@H]1CCC1=C2CC[C@]2(C)[C@@H]([C@H](C)[C@H](C/C=C(/C)C(=O)O)OC(C)=O)CC[C@@]12C` as the compound, how does the IC50 [1] read?
The IC50 was greater than 50 µg/mL.

What about the MIC [2] of the same compound?
The MIC was greater than 50 µg/mL.

What about the IC50 [3] of the same compound?
The IC50 was greater than 10 µg/mL.

How did the IC50 [1] turn out when `CC(=O)OC[C@@]1(CCC(=O)O)C2=C(CC[C@H]1C(C)(C)O)[C@]1(C)CC[C@H]([C@H](C)[C@H](C/C=C(/C)C(=O)O)OC(C)=O)[C@@]1(C)CC2` was run?
Its IC50 is greater than 50 µg/mL.

What about the MIC [2] of the same compound?
Its MIC is greater than 50 µg/mL.

And the IC50 [3]?
Its IC50 is greater than 10 µg/mL.

Which IC50 [3] does the source give for `Cl.O[C@@H](c1cc(C(F)(F)F)nc2c(C(F)(F)F)cccc12)[C@H]1CCCCN1` here?
Its IC50 is greater than 10 µg/mL.

With `CC(=O)OC[C@@]1(CCC(=O)O)C2=C(CC[C@H]1C(C)(C)O)[C@]1(C)CC[C@H]([C@H](C)[C@H]3OC(=O)C(C)=C[C@@H]3O)[C@@]1(C)CC2` as the compound, how does the IC50 [1] read?
Its IC50 is greater than 50 µg/mL.

And the MIC [2]?
Its MIC is greater than 50 µg/mL.

And the IC50 [3]?
The IC50 was 5 µg/mL (≈ 8.92 µM).

Which results are given for `CC(=O)OC[C@@]1(CCC(=O)O)C2=C(CC[C@H]1C(C)(C)O)[C@]1(C)CC[C@H]([C@H](C)[C@@H]3CC=C(C)C(=O)O3)[C@@]1(C)CC2`?
IC50 [1]: > 50 µg/mL; MIC [2]: 25 µg/mL (≈ 45.9 µM); IC50 [3]: 8.2 µg/mL (≈ 15.1 µM)

With `CC(=O)OC[C@@]1(CCC(=O)O)C2=CC[C@]3(C)[C@@H]([C@H](C)[C@H](C/C=C(/C)C(=O)O)OC(C)=O)CC[C@@]3(C)C2=CC[C@H]1C(C)(C)O` as the compound, how does the IC50 [1] read?
The IC50 was greater than 50 µg/mL.

What about the MIC [2] of the same compound?
The MIC was greater than 50 µg/mL.

What about the IC50 [3] of the same compound?
Its IC50 is 1.4 µg/mL (≈ 2.32 µM).

Which IC50 [1] does the source give for `Cc1c2ccncc2c(C)c2c1[nH]c1ccccc12` [ELLIPTECINE] here?
The IC50 was 0.87 µg/mL (≈ 3.53 µM).

Which IC50 [1] does the source give for `CC1=CC[C@@H]([C@@H](C)[C@H]2CC[C@@]3(C)C4=C(CC[C@]23C)[C@@]2(C)CCC(=O)C(C)(C)[C@@H]2CC4)OC1=O` here?
The IC50 was greater than 50 µg/mL.

And the MIC [2]?
Its MIC is greater than 50 µg/mL.

And the IC50 [3]?
The IC50 was 3.6 µg/mL (≈ 7.95 µM).

For `CC(=O)OC[C@]12CC[C@H](O)C(C)(C)[C@@H]1CCC1=C2CC[C@]2(C)[C@@H]([C@H](C)[C@H](C/C=C(/C)C(=O)O)OC(C)=O)CC[C@@]12C`, which IC50 [1] is on record?
The IC50 was greater than 50 µg/mL.

What about the MIC [2] of the same compound?
Its MIC is greater than 50 µg/mL.

And the IC50 [3]?
The IC50 was greater than 10 µg/mL.

Which results are given for `CC(=O)O[C@@H](C/C=C(/C)C(=O)O)[C@@H](C)[C@H]1CC[C@@]2(C)C3=CC[C@@H](C(C)(C)OC(C)=O)[C@]4(CCC(=O)OC4)C3=CC[C@]12C`?
IC50 [1]: > 50 µg/mL; MIC [2]: > 50 µg/mL; IC50 [3]: 5.8 µg/mL (≈ 9.92 µM)

For `C[C@H]1[C@@H](O)O[C@@H]2O[C@@]3(C)CC[C@H]4[C@H](C)CC[C@@H]1[C@@]24OO3` [ARTENIMOL], which IC50 [3] is on record?
The IC50 was greater than 10 µg/mL.

With `CC(=O)O[C@@H](C/C=C(/C)C(=O)O)[C@@H](C)[C@H]1CC[C@@]2(C)C3=C(C=C4C=CC(=O)OC(C)(C)[C@@H]4CC3)CC[C@]12C` as the compound, how does the IC50 [1] read?
Its IC50 is 49.2 µg/mL (≈ 93.8 µM).

And the MIC [2]?
Its MIC is greater than 50 µg/mL.

And the IC50 [3]?
Its IC50 is 0.03 µg/mL (≈ 0.0572 µM).

With `NNC(=O)c1ccncc1` [ISONIAZID] as the compound, how does the MIC [2] read?
Its MIC is 0.047 µg/mL (≈ 0.343 µM).
